From patent US11566007B2, “Ras inhibitors” (Revolution Medicines, Inc., priority 2019, dated 2023)
Several values for one entry are separate records, joined by “and”; a condition that tells them apart may be missing. Equal entries are not always repeated.

Tests used:
[1] = target: KRAS G13D (Homo sapiens (Human), UniProt P01116+P62937, G13D); assay: Ras-Raf (BRAF RBD) disruption / FRET / MOA assay, KRAS G13D; format: biochemical; details: read-out: IC50* KRAS G13D FRET data
Method: (§1) The purpose of this biochemical assay is to measure the ability of test compounds to facilitate ternary complex formation between a nucleotide-loaded Ras isoform and cyclophilin A; the resulting ternary complex disrupts binding to a BRAF^RBD construct, inhibiting Ras signaling through a RAF effector.
(§2) Compound is present in plate wells as a 10-point 3-fold dilution series starting at a final concentration of 30 μM. After incubation at 25° C. for 3 hours, a mixture of Anti-His Eu-W1024 and anti-GST allophycocyanin is then added to assay sample wells at final concentrations of 10 nM and 50 nM, respectively, and the reaction incubated for an additional 1.5 hours. […] Compounds that facilitate disruption of a Ras:RAF complex are identified as those eliciting a decrease in the TR-FRET ratio relative to DMSO control wells.
(§3) This protocol may also be executed substituting other Ras proteins or nucleotides.
(§4) The purpose of this biochemical assay was to measure the ability of test compounds to facilitate ternary complex formation between a nucleotide-loaded K-Ras isoform and Cyclophilin A; the resulting ternary complex disrupts binding to a BRAF^RBD construct, inhibiting K-Ras signaling through a RAF effector. Data is reported as IC50 values.
as §2, with “Compound was” for “Compound is”, “allophycocyanin was” for “allophycocyanin is”, “a K-Ras:RAF” for “a Ras:RAF”, “complex were” for “complex are”

[2] = target: NRAS G12C (Homo sapiens (Human), UniProt P01111+P62937, G12C); assay: Ras-Raf (BRAF RBD) disruption / FRET / MOA assay, NRAS G12C; format: biochemical; details: read-out: IC50* NRAS G12C FRET data
Sequence of NRAS G12C (P01111 whole entry G12C): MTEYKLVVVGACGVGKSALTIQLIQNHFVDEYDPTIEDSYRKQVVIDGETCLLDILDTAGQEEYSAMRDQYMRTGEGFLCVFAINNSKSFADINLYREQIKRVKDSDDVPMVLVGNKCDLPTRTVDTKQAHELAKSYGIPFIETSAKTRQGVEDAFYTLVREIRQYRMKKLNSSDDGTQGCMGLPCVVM
Sequence of NRAS G12C (P62937 whole entry): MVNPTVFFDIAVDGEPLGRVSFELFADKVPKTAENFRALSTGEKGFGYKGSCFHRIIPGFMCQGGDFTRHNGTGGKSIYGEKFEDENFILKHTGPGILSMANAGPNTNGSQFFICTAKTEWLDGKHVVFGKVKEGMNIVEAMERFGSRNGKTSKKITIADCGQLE
Method: as §1, §2
This protocol may also be executed substituting other Ras proteins or nucleotides. […]

[3] = target: KRAS G12D (Homo sapiens (Human), UniProt P01116+P62937, G12D); assay: Ras-Raf (BRAF RBD) disruption / FRET / MOA assay, KRAS G12D; format: biochemical; details: Ras-Raf disruption/FRET/MOA assay; class symbols; read-out: KRAS G12D FRET data IC50
Sequence of KRAS G12D (P01116-2 other isoform, or with tags, fused parts or gaps G12D): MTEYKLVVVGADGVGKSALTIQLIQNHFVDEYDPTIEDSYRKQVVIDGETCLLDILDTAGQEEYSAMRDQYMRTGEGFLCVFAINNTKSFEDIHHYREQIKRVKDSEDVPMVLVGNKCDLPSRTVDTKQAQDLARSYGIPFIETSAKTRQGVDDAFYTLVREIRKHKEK
Sequence of KRAS G12D (P62937 whole entry): as the sequence (P62937 whole entry) above
Method in brief: (§5)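 Compound-driven ternary complex of nucleotide-loaded Ras with cyclophilin A, disrupting BRAF RBD binding. 10-point 3-fold dilution from 30 μM final, 3 h at 25° C, then anti-His Eu-W1024 (10 nM) and anti-GST allophycocyanin (50 nM) for 1.5 h. IC50 from TR-FRET ratio decrease versus DMSO.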

[4] = system: NCI-H358 cells (K-Ras G12C); assay: Potency assay: pERK in NCI-H358 cells; format: cell-based, human; details: Homo sapiens, NCI-H358; H358 KRAS G12C; read-out: pERK EC50
Method in brief: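 4 h cpd, 37 °C; 10-pt 3-fold series, 10 mM DMSO top stock, duplicates. Readout pERK: AlphaLISA SureFire Ultra or In-Cell Western (IR-800CW secondary, DRAQ5 DNA stain). IC50, 4-PL fit vs log conc.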

[5] = target: KRAS G12S (Homo sapiens (Human), UniProt P01116+P62937, G12S); assay: Ras-Raf (BRAF RBD) disruption / FRET / MOA assay, KRAS G12S; format: biochemical; details: Ras-Raf disruption/FRET/MOA assay; class symbols; read-out: KRAS G12S FRET data IC50
Sequence of KRAS G12S (P01116-2 other isoform, or with tags, fused parts or gaps G12S): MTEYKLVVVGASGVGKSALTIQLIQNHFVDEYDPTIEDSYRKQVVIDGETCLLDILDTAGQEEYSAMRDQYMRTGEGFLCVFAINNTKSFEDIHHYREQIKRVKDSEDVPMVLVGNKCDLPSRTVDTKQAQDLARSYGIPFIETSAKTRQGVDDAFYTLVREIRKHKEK
Sequence of KRAS G12S (P62937 whole entry): as the sequence (P62937 whole entry) above
Method in brief: as §5

[6] = target: K-Ras G13C (Homo sapiens (Human), UniProt P01116+P62937, G13C); assay: Ras-Raf (BRAF RBD) disruption / FRET / MOA assay, KRAS G13C; format: biochemical; details: KRAS G13C; Ras-Raf disruption/FRET/MOA assay; read-out: IC50* KRAS G13C FRET data
Sequence of K-Ras G13C (P01116-2 other isoform, or with tags, fused parts or gaps G13C): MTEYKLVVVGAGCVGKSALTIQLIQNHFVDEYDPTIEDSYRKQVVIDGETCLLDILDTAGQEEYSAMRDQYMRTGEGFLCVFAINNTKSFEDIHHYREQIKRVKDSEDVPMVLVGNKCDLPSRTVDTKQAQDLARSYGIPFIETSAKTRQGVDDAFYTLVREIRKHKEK
Sequence of K-Ras G13C (P62937 whole entry): as the sequence (P62937 whole entry) above
Method: as §1, §2, §3, §4
as §2, with “Compound was” for “Compound is”, “allophycocyanin was” for “allophycocyanin is”, “a K-Ras:RAF” for “a Ras:RAF”, “complex were” for “complex are”

[7] = target: KRAS G12V (Homo sapiens (Human), UniProt P01116+P62937, G12V); assay: Ras-Raf (BRAF RBD) disruption / FRET / MOA assay, KRAS G12V; format: biochemical; details: read-out: IC50* KRAS G12V FRET data
Sequence of KRAS G12V (P01116-2 other isoform, or with tags, fused parts or gaps G12V): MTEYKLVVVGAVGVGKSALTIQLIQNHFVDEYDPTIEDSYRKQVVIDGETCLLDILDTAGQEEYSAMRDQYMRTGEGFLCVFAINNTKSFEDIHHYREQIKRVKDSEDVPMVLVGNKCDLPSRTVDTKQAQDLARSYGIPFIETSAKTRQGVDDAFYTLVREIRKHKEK
Sequence of KRAS G12V (P62937 whole entry): as the sequence (P62937 whole entry) above
Method: as §1, §2, §3, §4
as §2, with “Compound was” for “Compound is”, “allophycocyanin was” for “allophycocyanin is”, “a K-Ras:RAF” for “a Ras:RAF”, “complex were” for “complex are”

[8] = target: KRAS WT (Homo sapiens (Human), UniProt P01116+P62937); assay: Ras-Raf (BRAF RBD) disruption / FRET / MOA assay, KRAS WT; format: biochemical; details: read-out: IC50* KRAS WT FRET data
Sequence of KRAS WT (P01116-2 other isoform, or with tags, fused parts or gaps): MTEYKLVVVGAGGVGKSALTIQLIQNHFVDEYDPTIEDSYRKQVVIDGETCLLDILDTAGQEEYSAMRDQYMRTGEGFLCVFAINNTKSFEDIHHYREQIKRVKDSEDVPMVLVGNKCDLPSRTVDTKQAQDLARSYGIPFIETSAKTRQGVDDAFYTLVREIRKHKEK
Sequence of KRAS WT (P62937 whole entry): as the sequence (P62937 whole entry) above
Method: as §1, §2, §3, §4
as §2, with “Compound was” for “Compound is”, “allophycocyanin was” for “allophycocyanin is”, “a K-Ras:RAF” for “a Ras:RAF”, “complex were” for “complex are”

[9] = target: K-Ras G12C (Homo sapiens (Human), UniProt P01116+P62937, G12C); assay: Ras-Raf (BRAF RBD) disruption / FRET / MOA assay, KRAS G12C; format: biochemical; details: KRAS G12C; Ras-Raf disruption/FRET/MOA assay; read-out: IC50* KRAS G12C FRET data
Sequence of K-Ras G12C (P01116-2 other isoform, or with tags, fused parts or gaps G12C): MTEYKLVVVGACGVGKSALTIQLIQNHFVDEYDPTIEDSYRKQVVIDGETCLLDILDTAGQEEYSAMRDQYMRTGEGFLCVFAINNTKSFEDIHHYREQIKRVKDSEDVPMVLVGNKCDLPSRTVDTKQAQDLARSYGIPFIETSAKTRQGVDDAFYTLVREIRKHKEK
Sequence of K-Ras G12C (P62937 whole entry): as the sequence (P62937 whole entry) above
Method: as §1, §2, §3, §4
as §2, with “Compound was” for “Compound is”, “allophycocyanin was” for “allophycocyanin is”, “a K-Ras:RAF” for “a Ras:RAF”, “complex were” for “complex are”

Sequence of KRAS G13D (P01116-2 other isoform, or with tags, fused parts or gaps G13D): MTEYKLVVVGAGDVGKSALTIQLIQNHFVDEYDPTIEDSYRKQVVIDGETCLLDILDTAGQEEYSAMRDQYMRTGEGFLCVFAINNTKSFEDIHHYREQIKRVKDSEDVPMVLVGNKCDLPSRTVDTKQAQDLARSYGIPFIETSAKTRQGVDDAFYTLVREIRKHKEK
Sequence of KRAS G13D (P62937 whole entry, canonical isoform): as the sequence (P62937 whole entry) above

IC50 [1]	IC50 [2]	IC50 [3]	EC50 [4]	IC50 [5]	IC50 [6]	IC50 [7]	IC50 [8]	IC50 [9]	SMILES
100 to 1000 nM and 10 to 100 nM	10 to 100 nM and 100 to 1000 nM	1000 to 10000 nM and 100 to 1000 nM	< 5000 nM	100 to 1000 nM	10 to 100 nM and 100 to 1000 nM	100 to 1000 nM and 1000 to 10000 nM	1000 to 10000 nM and 10 to 100 nM	10 to 100 nM and 100 to 1000 nM	CCn1c(-c2cccnc2[C@H](C)OC)c2c3cc(ccc31)-c1cc(O)cc(c1)C[C@H](NC(=O)[C@H](C(C)C)N(C)C(=O)C1CCN(C(=O)/C=C/CN(C)C)CC1)C(=O)N1CCC[C@H](N1)C(=O)OCC(C)(C)C2 (atropisomer, axis not shown) [Example A261]
1000 to 10000 nM	10 to 100 nM	1000 to 10000 nM and > 10000 nM	< 5000 nM	100 to 1000 nM and 1000 to 10000 nM	100 to 1000 nM	100 to 1000 nM and 1000 to 10000 nM	1000 to 10000 nM	10 to 100 nM	CCn1c(-c2cccnc2COC)c2c3cc(ccc31)-c1cc(O)cc(c1)C[C@H](NC(=O)[C@H](C(C)C)N(C)C(=O)[C@H]1CCN(C(=O)C#CC3(N(C)C)COC3)C1)C(=O)N1CCC[C@H](N1)C(=O)OCC(C)(C)C2 [Example A241]
1000 to 10000 nM	100 to 1000 nM	> 10000 nM	< 5000 nM	100 to 1000 nM	1000 to 10000 nM	100 to 1000 nM	1000 to 10000 nM	100 to 1000 nM	C=CC(=O)N1CC[C@H](C(=O)N(C)[C@H](C(=O)N[C@H]2Cc3cc(O)cc(c3)-c3ccc4c(c3)c(c(-c3cccnc3[C@@H](OC)C3CC3)n4CC)CC(C)(C)COC(=O)[C@@H]3CCCN(N3)C2=O)C(C)C)C1 (atropisomer, axis not shown) [Example A206]
> 10000 nM	10 to 100 nM and 1000 to 10000 nM	> 10000 nM	< 5000 nM	> 10000 nM	1000 to 10000 nM and > 10000 nM	1000 to 10000 nM and > 10000 nM	> 10000 nM	10 to 100 nM and 100 to 1000 nM	CCn1c(-c2cccnc2[C@H](C)OC)c2c3cc(ccc31)-c1cccc(c1)C[C@H](NC(=O)[C@H](C(C)C)N(C)C(=O)[C@H]1CCN(C(=O)C#CCN3CCOCC3)C1)C(=O)N1CCC[C@H](N1)C(=O)OCC(C)(C)C2 (atropisomer, axis not shown) [Example A191]

SMILES	IC50 [1]	IC50 [2]	IC50 [3]	EC50 [4]	IC50 [5]	IC50 [6]	IC50 [7]	IC50 [8]	IC50 [9]
CCn1c(-c2cccnc2[C@H](C)OC)c2c3cc(ccc31)-c1cccc(c1)C[C@H](NC(=O)[C@H](C(C)C)N(C)C(=O)[C@H]1CCN(C(=O)C#CC(C)(C)N3CCC(F)(F)C3)C1)C(=O)N1CCC[C@H](N1)C(=O)OCC(C)(C)C2 (atropisomer, axis not shown) [Example A325]	> 10000 nM	1000 to 10000 nM	> 10000 nM	< 5000 nM	1000 to 10000 nM	1000 to 10000 nM	1000 to 10000 nM	> 10000 nM	1000 to 10000 nM
CCn1c(-c2ccccc2CCOC)c2c3cc(ccc31)-c1cc(O)cc(c1)C[C@H](NC(=O)[C@H](C(C)C)N(C)C(=O)c1ccc(NC(=O)/C=C/CN(C)C)cc1)C(=O)N1CCC[C@H](N1)C(=O)OCC(C)(C)C2 [Example A225]	> 10000 nM	100 nM to 1 µM and > 10 µM (2×)	> 10000 nM	< 5000 nM	1 µM to 10 µM (2×) and > 10 µM (2×)	1 µM to 10 µM (3×) and > 10 µM	> 10000 nM	1000 to 10000 nM	10 nM to 100 nM (2×) and 1 µM to 10 µM (2×)
